Data taken from article PMC7700423, “Differential Effects of 1α,25-Dihydroxyvitamin D3 on the Expressions and Functions of Hepatic CYP and UGT Enzymes and Its Pharmacokinetic Consequences In Vivo” (Pharmaceutics, 2020).
Blank lines part the entries; values can stand above or below the compound they belong to.

Legend:
[1] = Pharmacokinetics of BUP and HBUP after intravenous BUP in rats; format: in vivo, rat; settings: for CL renal: plasma and urine; for AUC: n = 6-7; for Vd: read-out: Vss; for Ae0-24h: urine 0-24 h; for Tmax: median (range)
Procedure: Male Sprague-Dawley (SD) rats (8 weeks, 260–280 g) were purchased from Nara Biotech Co. (Seoul, Korea). Animals were maintained in cages under controlled conditions under a 12-h dark/light cycle with free access to food and tap water, acclimated for at least five days in the laboratory before experiments, and allocated to a control group or 1,25(OH)2D3-treated group. The 1,25(OH)2D3 dosing solution was prepared by diluting 1,25(OH)2D3 in ethanol with 5 mL of corn oil (2.56 nmol/mL of final concentration). The dosing solution for the control group was prepared but the 1,25(OH)2D3 was omitted. The dosing solutions were administered intraperitoneally to rats at a dose of 1 mL/kg/day (2.56 nmol/kg/day as 1,25(OH)2D3) over four consecutive days. On the fifth day, rats were used for pharmacokinetic study.
In vivo pharmacokinetic animal experiments were accomplished according to the Guide for the Care and Use of Laboratory Animals issued by the National Institute of Health, as described previously. Before starting the animal studies, all experimental protocols were reviewed and approved by the Animal Care and Use Committee of Gachon University (Approval no. GIACUC-R2019020; approved on July 1st, 2019). SD male rats (8–9 weeks, 250–300 g, Nara Biotech Co., Seoul, South Korea) had free access to food and water, acclimatized and maintained in the room under a 12-h light/dark cycle for a week before the study. After pretreatment with 1,25(OH)2D3 for 4 continuous days, the rats in the control and 1,25(OH)2D3 groups were anesthetized with Zoletil® (Vibrac, TX, USA) (10 mg/kg i.m.) and then the femoral vein and artery were cannulated with polyethylene tubing (Clay Adams, NJ, USA) for drug administration and blood sampling, respectively, as described previously. The pharmacokinetic experiment was initiated by drug administration after the rats were recovered from anesthesia. […] Approximately 100 μL of blood was collected via the femoral artery at 0, 1, 5, 15, 30, 60, 120, 180, 240, 360, 480, and 600 min after the drug administration. […] Blood samples were collected at 0, 1, 5, 15, 30, 60, 90, 120, 180, 240, 360, and 480 min later and immediately centrifuged at 14,000× g for 15 min at 4 °C. For compensation of fluid loss, a same volume of saline was intravenously provided after each sample collection. Plasma was then separated from whole blood cells and stored at −20 °C for further analysis. Urine samples were collected 0–4, 4–8, and 8–24 h after drug administration. The collected urine samples were diluted with distilled deionized water (DDW) 20-fold prior to LC-MS/MS analysis. […] The weighted tissues were homogenized on ice by an electric homogenizer following adding 2-fold volume of PBS. The homogenates were stored before LC-MS/MS analysis.
(§1) Moreover, CLNR was calculated to subtract CLR from CL.

[2] = Tissue distribution of TOL and HTOL in rats; format: in vivo, rat; settings: for Tissue to plasma concentration ratio (Kp), Liver: n = 4-6
Procedure: (§2) Male Sprague-Dawley (SD) rats (8 weeks, 260–280 g) were purchased from Nara Biotech Co. (Seoul, Korea). […] The dosing solution for the control group was prepared but the 1,25(OH)2D3 was omitted. […] On the fifth day, rats were used for pharmacokinetic study.
(§3) In vivo pharmacokinetic animal experiments were accomplished according to the Guide for the Care and Use of Laboratory Animals issued by the National Institute of Health, as described previously. […] After pretreatment with 1,25(OH)2D3 for 4 continuous days, the rats in the control and 1,25(OH)2D3 groups were anesthetized with Zoletil® (Vibrac, TX, USA) (10 mg/kg i.m.) and then the femoral vein and artery were cannulated with polyethylene tubing (Clay Adams, NJ, USA) for drug administration and blood sampling, respectively, as described previously. The pharmacokinetic experiment was initiated by drug administration after the rats were recovered from anesthesia. […] Approximately 100 μL of blood was collected via the femoral artery at 0, 1, 5, 15, 30, 60, 120, 180, 240, 360, 480, and 600 min after the drug administration. […] For compensation of fluid loss, a same volume of saline was intravenously provided after each sample collection. Plasma was then separated from whole blood cells and stored at −20 °C for further analysis. […] The collected urine samples were diluted with distilled deionized water (DDW) 20-fold prior to LC-MS/MS analysis. […] The weighted tissues were homogenized on ice by an electric homogenizer following adding 2-fold volume of PBS. The homogenates were stored before LC-MS/MS analysis.

[3] = Pharmacokinetics of TOL and HTOL after intravenous TOL in rats; format: in vivo, rat; settings: for Tmax: median (range); for Ae0-24h: urine 0-24 h; for Vd: read-out: Vss
Procedure: as §2, §3, §1

Cyp2c11 = target: T1, Cyp2c11 (Rattus norvegicus, UniProt P08683); test: Tolbutamide 4-hydroxylation (HTOL formation) in rat liver microsomes; settings: for CLint: n = 3
T1 sequence (P08683 1-500): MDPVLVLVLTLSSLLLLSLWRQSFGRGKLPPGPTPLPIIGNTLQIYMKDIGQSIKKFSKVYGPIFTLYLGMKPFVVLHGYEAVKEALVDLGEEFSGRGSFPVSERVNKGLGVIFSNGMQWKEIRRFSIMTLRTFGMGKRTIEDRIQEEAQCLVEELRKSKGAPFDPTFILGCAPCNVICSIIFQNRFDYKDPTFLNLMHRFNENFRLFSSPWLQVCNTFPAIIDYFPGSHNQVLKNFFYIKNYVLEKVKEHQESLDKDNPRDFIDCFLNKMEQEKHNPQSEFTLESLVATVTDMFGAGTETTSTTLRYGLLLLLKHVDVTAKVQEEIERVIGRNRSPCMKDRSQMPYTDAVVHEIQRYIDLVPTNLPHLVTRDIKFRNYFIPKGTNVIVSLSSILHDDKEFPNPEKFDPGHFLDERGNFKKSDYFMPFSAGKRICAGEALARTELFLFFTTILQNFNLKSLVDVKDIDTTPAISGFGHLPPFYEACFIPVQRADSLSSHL

[4] = i.v. 5 mg/kg BUP, 1,25(OH)2D3-treated rats
[5] = male, Sprague-Dawley, rat, plasma, iv, 5 mg/kg, i.v. 5 mg/kg BUP, 1,25(OH)2D3-treated rats
[6] = male, Sprague-Dawley, rat, plasma, iv, 5 mg/kg, i.v. 5 mg/kg BUP, control rats
[7] = 8 h after i.v. 2 mg/kg TOL, 1,25(OH)2D3-treated rats
[8] = 8 h after i.v. 2 mg/kg TOL, control rats
[9] = formed metabolite, i.v. 2 mg/kg TOL, 1,25(OH)2D3-treated rats
[10] = formed metabolite, i.v. 2 mg/kg TOL, control rats
[11] = i.v. 2 mg/kg TOL, 1,25(OH)2D3-treated rats
[12] = male, Sprague-Dawley, rat, plasma, iv, 2 mg/kg, i.v. 2 mg/kg TOL, 1,25(OH)2D3-treated rats
[13] = male, Sprague-Dawley, rat, plasma, iv, 2 mg/kg, i.v. 2 mg/kg TOL, control rats

Renal clearance as portion of total clearance ([1]; 1,25(OH)2D3-treated rats): 1.92%
Renal clearance as portion of total clearance ([1]; control rats): 0.7%
CLNR [1, 4]: 53.55 ± 13.02 mL/min/kg
CLNR ([1]; i.v. 5 mg/kg BUP, control rats): 93.08 ± 13.73 mL/min/kg
CL renal ([1]; male, Sprague-Dawley, rat, iv, 5 mg/kg, i.v. 5 mg/kg BUP, 1,25(OH)2D3-treated rats): 1.05 ± 0.407 mL/min/kg
CL renal ([1]; male, Sprague-Dawley, rat, iv, 5 mg/kg, i.v. 5 mg/kg BUP, control rats): 0.662 ± 0.635 mL/min/kg
MRT [1, 5]: 1.47 h
clearance [1, 5]: 54.6 ± 13.4 mL/min/kg
half-life [1, 5]: 2.24 ± 0.812 h
AUC ([1]; male, Sprague-Dawley, rat, plasma, iv, 5 mg/kg, i.v. 5 mg/kg BUP, 1,25(OH)2D3-treated rats, read-out: AUC (converted)): 1610 ng·h/mL
Vd [1, 5]: 5.4 ± 1.87 L/kg
MRT [1, 6]: 1.19 h
clearance [1, 6]: 93.6 ± 14.2 mL/min/kg
half-life [1, 6]: 2.59 ± 0.432 h
AUC ([1]; male, Sprague-Dawley, rat, plasma, iv, 5 mg/kg, i.v. 5 mg/kg BUP, control rats, read-out: AUC (converted)): 906 ng·h/mL
Vd [1, 6]: 7.82 ± 1.95 L/kg
Ae0-24h [1, 4]: 1.791 ± 0.031 % of dose
Ae0-24h ([1]; i.v. 5 mg/kg BUP, control rats): 0.719 ± 0.613 % of dose
SMILES: CC(NC(C)(C)C)C(=O)c1cccc(Cl)c1 (stereo not drawn) [BUP, bupropion]

SMILES: C[C@H]1NC(C)(C)CO[C@]1(O)c1cccc(Cl)c1 [HBUP, hydroxybupropion]
CLR [1, 4]: 0.077 ± 0.031 mL/min/kg
Cmax [1, 4]: 68 ± 21 ng/mL
t1/2 [1, 4]: 3.283 ± 0.903 h
AUC [1, 4]: 329.5 ± 151 ng·h/mL
CLR ([1]; i.v. 5 mg/kg BUP, control rats): 0.222 ± 0.124 mL/min/kg
Cmax ([1]; i.v. 5 mg/kg BUP, control rats): 46 ± 32 ng/mL
t1/2 ([1]; i.v. 5 mg/kg BUP, control rats): 2.673 ± 0.627 h
AUC ([1]; i.v. 5 mg/kg BUP, control rats): 76.83 ± 31.63 ng·h/mL
Tmax [1, 4]: 15 (15–60) min
Tmax ([1]; i.v. 5 mg/kg BUP, control rats): 15 min
Ae0-24h [1, 4]: 0.026 ± 0.008 % of dose
Ae0-24h ([1]; i.v. 5 mg/kg BUP, control rats): 0.015 ± 0.007 % of dose

Tissue to plasma concentration ratio (Kp), Brain [2, 7]: 0.019 ± 0.004
Tissue to plasma concentration ratio (Kp), Heart [2, 7]: 0.252 ± 0.036
Tissue to plasma concentration ratio (Kp), Kidney [2, 7]: 7.768 ± 0.014
Tissue to plasma concentration ratio (Kp), Spleen [2, 7]: 0.163 ± 0.008
Tissue to plasma concentration ratio (Kp), Liver [2, 7]: 0.657 ± 0.129
Tissue to plasma concentration ratio (Kp), Brain [2, 8]: 0.020 ± 0.008
Tissue to plasma concentration ratio (Kp), Heart [2, 8]: 0.175 ± 0.013
Tissue to plasma concentration ratio (Kp), Kidney [2, 8]: 5.335 ± 1.127
Tissue to plasma concentration ratio (Kp), Spleen [2, 8]: 0.137 ± 0.010
Tissue to plasma concentration ratio (Kp), Liver [2, 8]: 0.831 ± 0.152
AUC [3, 9]: 151.9 ± 52.0 µg·min/mL
CLR [3, 9]: 0.873 ± 0.134 mL/min/kg
AUC [3, 10]: 100.8 ± 65.2 µg·min/mL
CLR [3, 10]: 2.713 ± 0.570 mL/min/kg
Cmax [3, 11]: 207 ± 119 ng/mL
t1/2 [3, 11]: 10.5 ± 8.193 h
Cmax ([3]; i.v. 2 mg/kg TOL, control rats): 167 ± 67 ng/mL
t1/2 ([3]; i.v. 2 mg/kg TOL, control rats): 8.688 ± 8.317 h
Tmax [3, 11]: 120 (60–240) min
Tmax ([3]; i.v. 2 mg/kg TOL, control rats): 60 (15–120) min
Ae0-24h [3, 11]: 5.539 ± 2.305 % of dose
Ae0-24h ([3]; i.v. 2 mg/kg TOL, control rats): 9.356 ± 0.471 % of dose
SMILES: CCCCNC(=O)NS(=O)(=O)c1ccc(CO)cc1 [HTOL, 4-hydroxytolbutamide]

CLint (Cyp2c11; RLMs from 1,25(OH)2D3-treated rats): 0.89 ± 0.18 μL/min/mg protein
CLint (Cyp2c11; RLMs from control rats): 3.00 ± 0.63 μL/min/mg protein
CLint lower in 1,25(OH)2D3-treated rats than in controls (Cyp2c11; RLMs, p = 0.0051): 70%
CLNR [3, 11]: 0.206 ± 0.045 mL/min/kg
CLNR ([3]; i.v. 2 mg/kg TOL, control rats): 0.189 ± 0.030 mL/min/kg
clearance [3, 12]: 0.206 ± 0.045 mL/min/kg
half-life [3, 12]: 9.4 ± 3.46 h
AUC ([3]; male, Sprague-Dawley, rat, plasma, iv, 2 mg/kg, i.v. 2 mg/kg TOL, 1,25(OH)2D3-treated rats, n = 9-10, read-out: AUC (converted)): 10200 µg·min/mL
Vd [3, 12]: 0.153 ± 0.0195 L/kg
MRT [3, 13]: 11 h
clearance [3, 13]: 0.189 ± 0.027 mL/min/kg
half-life [3, 13]: 7.71 ± 2.56 h
AUC ([3]; male, Sprague-Dawley, rat, plasma, iv, 2 mg/kg, i.v. 2 mg/kg TOL, control rats, n = 9-10, read-out: AUC (converted)): 10800 µg·min/mL
Vd [3, 13]: 0.12 ± 0.0156 L/kg
CL renal ([3]; male, Sprague-Dawley, rat, urine and plasma, iv, 2 mg/kg): 0.000208 ± 0.000103 mL/min/kg
Ae0-24h [3, 11]: 0.024 ± 0.016 % of dose
Ae0-24h ([3]; i.v. 2 mg/kg TOL, control rats): 0.124 ± 0.059 % of dose
SMILES: CCCCNC(=O)NS(=O)(=O)c1ccc(C)cc1 [TOL, tolbutamide]
